Results on three molecules are retold here after patent US20050214384A1, “Chromium compositions and methods for using the same for inhibiting drug-induced insulin resistance” (priority 2002, published 2005).

The test system of data set [1] is subjects taking statin drugs. Description: Clinical trial of chromium picolinate on statin-induced insulin resistance (Example 1). The data set is classed as in vivo, human. Particulars: 400 μg chromium, one capsule a day orally, approximately six months, versus statin drug without chromium supplementation. As for the experimental part:
The effect of a chromium complex in inhibiting drug-induced insulin resistance is evaluated. Specifically, the effects of chromium picolinate on insulin sensitivity and vascular reactivity in subjects taking statin drugs are evaluated.
A clinical trial is initiated which includes approximately 80 male and female subjects between the ages of 35 and 65. The subject population is characterized as individuals suffering from moderate hypercholesterolemia and moderate high blood pressure. All subjects have been diagnosed with hypercholesterolemia. LDLC based on 75th percentile (>140-165 mg/dL) and HDL-C: <30 mg/dL. […]
Study visits are scheduled at the start of the study to record baseline information on the subjects and every two weeks thereafter. The following physiological conditions are measured prior to administration of the supplement as a baseline and at regular intervals during the course of the study: Glycated hemoglobin, fasting insulin, fasting plasma glucose levels, total cholesterol, triglycerides, LDL, HDL, urinalysis (routine), CBC, and serum chemistry, as well as blood pressure and body weight. In addition, insulin sensitivity is measured according to the euglycemic-hyperinsulinemic glucose clamp technique specified by R. A. DeFronzo et al. Glucose Clamp Technique: A Method for Quantifying Insulin Secretion and Resistance, 237 Am. […]

Data set [2] concerns rats. Particulars: cited from earlier work.
The test system of data set [3] is rats. Particulars: oral CrCl3; cited from earlier work.

Like-named read-outs stand apart in the source and are kept apart here.

chromium picolinate: the “incidence of drug-induced insulin resistance” value in data set [1] is recorded as “lower incidence of drug-induced insulin resistance”. Moreover, the toxic effects result in the data set on rats [2] (rat, in vivo) is “without toxic effects”.
For `CC(=O)Oc1ccccc1C(=O)O` [aspirin], the “effect on chromium absorption” value in the data set with rats [3] is “facilitated”.
As for `[Cl][Cr]([Cl])[Cl]` [chromium chloride], the toxic effects result in the data set with rats [2] (levels several thousand times the upper limit of the ESADDI for chromium for humans (based on body weight)) is reported as “without toxic effects”.
